Measurements as given in PubChem BioAssay AID179 (DTP/NCI, 2004).
pEC50, pIC50: −log10 of the molar value. The source made the active and inactive calls.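 The calls were made as follows: active = compounds giving half or more protection of infected cells from virus-caused growth loss, again on retest; inactive = the rest.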 Where a SMILES comes first, the peptide text is derived from it. Bridges are numbered along the chain shown (N, C = ends). The star is where a group is joined. Cbz = O=C(OCc1ccccc1)*

System: CEM cells HIV-1 protection, formazan growth assay
Assay: NCI AIDS Antiviral Assay
Conditions: for pIC50: measured here: growth of uninfected CEM cells
Method in brief: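 Screen of anti-HIV-1 activity in human CEM cells using a formazan-based growth measurement at five drug concentrations. Hits with 50% or greater protection were repeated, and confirmation required reproducible complete protection.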

Compound | pEC50 | pIC50 | outcome
Cc1nc(Nc2ccccc2)sc1C(=O)CC(=O)C(=O)NC12CC3CC(CC(C3)C1)C2 | < 4.09 | < 4.09 | –
O=C1NCc2c1[nH]c(=O)[nH]c2=O | < 3.81 | < 3.81 | –
C=CC(C)(C)c1cccc2[nH]c3c(c12)CC1CCC2(O)C4=CC(=O)C5OC4(CCC2(C)[C@@]31C)OC5(C)C (some centres undefined) | – | – | inactive
Nc1ccc2nc(Nc3ccc(F)cc3)cnc2c1 | < 4.69 | < 4.69 | –
O=C1CSC(c2ccc([N+](=O)[O-])cc2)N1c1nc(-c2ccc3c(c2)CCCC3)cs1 (centres undefined) | 3.81 | 3.58 | –
CCOC(=O)C1=C(C)NC(=O)NC1c1ccccc1 (centres undefined) | < 3.70 | < 3.70 | –
NNC(=S)N/N=C(\CCCC(=O)NCCc1ccccc1)CC(=O)c1ccccc1 | < 3.66 | < 3.66 | –
O=C(CCCC[n+]1ccccc1)Sc1ccccc1C(=O)Nc1ccc(S(=O)(=O)Nc2ccccn2)cc1 | 4.57 | 3.94 | –
Cc1cc(Nc2ccc(N=Nc3ccc(O)c4ncccc34)cc2)nc(C)n1 | < 3.70 | 5.19 | –
COc1cc(C)c(Br)c2c1C(=O)C(Br)(Br)CC2 | < 3.70 | 6.51 | –
O=C(c1cccc(O)c(=O)c1)C1OC1c1ccccc1 (centres undefined) | < 3.84 | 5.55 | –
CC(C(=O)N1C(=O)N(C(=O)C(C)C(O)c2ccccc2)C2CCCCC21)C(O)c1ccccc1 (centres undefined) | < 3.70 | 3.92 | –
CCOC(=O)c1c(NC(=S)Nc2ccc(C)cc2)sc2c1CCN(C)C2 | < 3.70 | < 3.70 | –
COc1ccc(NC(=O)CC(=O)N2N=C(N(CCC#N)c3ccc(Cl)cc3)CC2c2ccccc2)cc1 (centres undefined) | < 4.44 | < 4.44 | –
O=C(O)CC(NC(=O)C(F)(F)F)C(=O)NC1Cc2ccccc2OC1=O (centres undefined) | < 3.70 | < 3.70 | –
Cc1nc2nnnn2c2c1C(=O)Nc1ccccc1N2 | < 3.70 | 4.08 | –
OC1(C(Sc2ccccc2)Sc2ccccc2)CCCCCC1 | – | – | inactive
CCOC(=O)C(CSSCC(NC(C)=O)C(=O)OCC)NC(C)=O (centres undefined) | 4.09 | 3.85 | –
COc1ccc2c3c([nH]c2c1)CCN(Cc1ccccc1)C3 | < 3.70 | 4.34 | –
COc1ccc([N+](=O)[O-])c2c(NCC(O)CO)ccnc12 (centres undefined) | < 3.70 | 4.53 | –
Cc1ccc(S(=O)C[C@](NC(=O)OCc2ccccc2)(Sc2ccccc2)C(F)F)cc1 (some centres undefined) | < 3.70 | 4.97 | –
Cc1cc(Cl)ccc1N=C1NC(=O)C(CC(=O)Nc2cccc(Cl)c2)S1 (centres undefined) | – | – | inactive

Compound | pEC50 | pIC50 | outcome
COc1cccc2c(Nc3ccc(S(=O)(=O)N=C(N)N)cc3)c3ccc([N+](=O)[O-])cc3nc12 | < 3.70 | 4.96 | –
O=S(=O)(c1ccccc1)C1CN2OC1(S(=O)(=O)c1ccccc1)CC21CCCCC1 (centres undefined) | – | – | inactive
OC1COC2CC(Nc3ccccn3)OC12 (centres undefined) | < 3.70 | < 3.70 | –
CCN(CC)c1ccc2cc(C(=O)Nc3cccc4ccccc34)c(=N)oc2c1 | < 3.70 | 4.90 | –
N#CC(C#N)C(c1ccccc1)c1ccccc1 | – | – | inactive
CN(C)c1ccc(/C=C\C#N)cc1 | < 4.01 | < 4.01 | –
O=C1NS(=O)(=O)NC1(c1ccccc1)c1ccccc1 | – | – | inactive
COC(=O)[C@H](Cc1ccccc1)NP(=O)(O)OCC1C=CC(n2cc(C)c(=O)[nH]c2=O)O1 (some centres undefined) | 5.06 | < 3.70 | –
N#CC(C#N)=Cc1ccccc1O | < 3.70 | 4.39 | –
CCN(Cc1ccccc1)c1ccc(/C=C/c2nccc3ccccc23)cc1 | < 4.84 | 4.85 | –
COC(=O)C(/C(=N/NC(=O)c1ccncc1)C(=O)Nc1ccccc1OC)c1nc2ccc(Cl)cc2[nH]c1=O (centres undefined) | < 4.04 | < 4.04 | –
CC(C)=NNC(=S)NC12CC3CC(CC(C3)C1)C2 | – | – | inactive
CCSc1ccc2c3c(cccc13)C(=O)N(CCc1ccccn1)C2=O | < 3.70 | < 3.70 | –
CCOC(=O)c1cn(CC)c2cc3c(cc2c1=O)SCS3 | – | – | inactive
NC(=S)N/N=C1\NC(=O)/C(=C/c2ccc3c(c2)OCO3)S1 | < 3.70 | 3.80 | –
Cc1cc(O)c2c(c1)C(C13Cc4cc(O)c5c(c4[C@H]1C=C[C@@H](O)[C@H]3O)C(=O)c1cccc(O)c1C5=O)OC2=O (some centres undefined) | – | – | inactive
Cc1nn(C(=O)Cc2ccccc2)c2c1C(c1ccccc1O)SC(N)=N2 (centres undefined) | 4.24 | 3.40 | –
C/C(=N/NS(=O)(=O)c1ccc(N)cc1)c1ccccc1O | < 3.93 | < 3.93 | –
CN(C)CCNC(=O)c1cccc(N(C)C(=O)c2ccccc2)c1[N+](=O)[O-] | < 3.70 | < 3.70 | –
CSCCC(NC(=O)OCc1ccccc1)P(=O)(O)c1ccccc1 (centres undefined) | < 3.70 | < 3.70 | –
CC(O[Si](C)(C)C)C1C=CC(C)n2c(=O)n(-c3ccccc3)c(=O)n21 (centres undefined) | – | – | inactive
FC(F)(Sc1ccccc1)c1nc2ccccc2o1 | < 4.11 | 4.18 | –

Compound | pEC50 | pIC50 | outcome
NC(CC(=O)O)C(=O)O (centres undefined) | < 4.41 | < 4.41 | –
Cc1ccccc1-n1c(=S)[nH]c2c(sc(=O)n2-c2ccccc2C)c1=O | < 5.42 | < 5.42 | –
O=C(CCl)N1CCN(C(c2ccccc2)c2ccccc2)CC1 | < 4.10 | 5.43 | –
CCOc1ccccc1NC(=O)C(=O)c1c(O)c2ccc(O)cc2oc1=O | < 3.31 | 3.74 | –
O=C(NO)c1ccc(OCc2ccccc2)cc1 | < 3.70 | 4.79 | –
CCOP(OCC)SSCn1nc2ccc3ccccc3n2c1=O | < 3.70 | 4.15 | –
CCOC(=O)C(Cl)(NC(=O)NC(Cl)(C(=O)OCC)C(F)(F)F)C(F)(F)F (centres undefined) | < 3.70 | < 3.70 | –
CC(=O)Nc1cc(N=Nc2ccc(NC(=O)c3ccc(N)cc3)cc2C)c(S(=O)(=O)O)cc1N=Nc1ccc(N=Nc2ccc(S(=O)(=O)O)cc2)cc1 | 5.25 | < 4.00 | –
CCN(CC)CC(=O)N1CCc2c([nH]c3ccccc23)C1c1cccnc1 (centres undefined) | < 3.86 | < 3.86 | –
O=C1C=C(Nc2ccc(Cl)cc2Cl)c2ccccc2C1=O | < 5.77 | < 5.77 | –
O=Cc1c(-c2ccccc2)nc2sc(-c3ccc4c(c3)OCO4)nn12 | – | – | inactive
CC(C)C(NC(=O)C1CCCN1C(=O)OCc1ccccc1)C(=O)O (stereo not drawn) (Cbz-Pro-Val-OH; configuration not given here) | < 3.14 | < 3.14 | –
Cc1ccc(S(=O)(=O)NCCN(CCNS(=O)(=O)c2ccc(C)cc2)S(=O)(=O)c2ccc(C)cc2)cc1 | < 3.70 | < 3.70 | –
COC(=O)C(Br)C1CCc2ccccc21 (centres undefined) | < 3.60 | 3.85 | –
Cn1c(=O)oc2cc(Br)ccc21 | < 3.70 | < 3.70 | –
CCOC(=O)C1CSSCC(N)C(=O)N1 (stereo not drawn) (H-Cys-Cys-OEt; disulfide 1-2; configuration not given here) | < 3.70 | < 3.70 | –
Cc1ccc(S(=O)(=O)C2=c3ncccc3=C3C(=O)c4ccccc4C(=O)C32)cc1 (centres undefined) | – | – | inactive
O=C(O)CCNC(=O)OCc1ccccc1 | < 3.70 | < 3.70 | –
C=C[C@H](C)[C@H](O)c1c(O)c2c(c3c(CCC)cc(=O)oc13)OC(C)(C)C=C2 | < 3.70 | 4.31 | –
CCOC(=O)CSc1nc(-c2ccccc2)c(C#N)c(=O)[nH]1 | – | – | inactive
COc1nc(NC2OC(COC(C)=O)C(OC(C)=O)C(OC(C)=O)C2OC(C)=O)c(N=C(C)C(C)=O)c(=O)n1C (centres undefined) | – | – | inactive
COc1ccc(Br)c(CCCCCCCC(=O)O)c1 | < 4.00 | < 4.00 | –

Compound | pEC50 | pIC50 | outcome
C[C@@H]([C@H]1CC[C@@]2(C)[C@@H]3CC[C@@H]4C(=CC3=CC[C@]12C)CC[C@H](N(C)C)C4(C)C)N(C)C | < 3.70 | < 3.70 | –
O=C1C[C@H]2CCCN2[C@@H](c2ccccc2)C1 | < 3.22 | < 3.22 | –
COc1ccc(/C=C/C(=O)c2ccc(OC(=O)/C=C/c3ccccc3)cc2)cc1 | < 3.70 | 5.04 | –
C/C=C/[C@H](O[Si](C)(C)C(C)(C)C)[C@@H](O)/C=C/C(=O)OCC | < 3.70 | 4.54 | –
C[C@H](CSC(=O)c1ccccc1)C(=O)N1c2ccccc2C[C@H]1C(=O)O | < 3.70 | 3.97 | –
CC1(C)OCC2OC3([C@H]4OC(C)(C)O[C@@H]4CO)OC(C)(C)OC3C2O1 (some centres undefined) | < 3.70 | < 3.70 | –
CCOc1ccc(C(C2=C(O)c3ccccc3C(=O)C2=O)C2=C(O)c3ccccc3C(=O)C2=O)cc1OC | < 3.70 | 4.53 | –
OCC1CC(F)C(n2cnc3c(I)ncnc32)O1 (centres undefined) | < 3.86 | 4.20 | –
CC12CCC3CCCCC3(OO1)[C@@H](OCc1ccccc1)O2 (some centres undefined) | < 4.53 | < 4.53 | –
Cc1ccc(CS(=O)C(Cl)(Cl)c2ccc(C)cc2)cc1 (centres undefined) | < 4.38 | 4.81 | –
O=C1c2ccccc2CC12CCC1(CC2)OCCO1 | < 3.70 | < 3.70 | –
C[N+]12CCCc3cccc(c31)CCC2 | < 3.10 | 3.74 | –
COC(C(=O)NCCCCNC(=O)C(OC)c1ccccc1)c1ccccc1 (centres undefined) | – | – | inactive
CC(C(=O)COCc1ccccc1)P1(=O)OC(C)(C)CN1C(C)(C)C (centres undefined) | < 3.70 | 3.88 | –
COc1cc2cc(c1Cl)N(C)C(=O)CC(OC(=O)C(C)N(C)C(=O)C(C)C)C1(C)OC1C(C)C1CC(O)(NC(=O)O1)C(OC)/C=C/C=C(C)C2OC (centres undefined) | – | – | inactive
Cn1c(-c2ccc(/C=N/NC(N)=NCCCCCCN=C(N)N/N=C/c3ccc(-c4c[n+]5ccccc5n4C)cc3)cc2)c[n+]2ccccc12 | 5.65 | 4.52 | –
O=C1c2cc([N+](=O)[O-])cnc2S(=O)(=O)N1c1ccc(Oc2ccccc2)cc1 | < 3.70 | 3.98 | –
NC1CNC(=O)c2cscc21 (centres undefined) | < 3.70 | < 3.70 | –
C(/Cc1ccc2c(c1)OCO2)=N\NC1=NCCN1 | < 3.70 | 3.93 | –
CC(Cn1c2c3ccccc3ccc2c2oc(=O)c3ccccc3c21)N(C)C (centres undefined) | < 5.41 | < 5.41 | –
CCCCCCCCCn1ccnc1NCCCCCCNc1nccn1CCCCCCCCC | < 5.14 | 5.44 | –
O=c1n(Cl)c(=O)n(Cl)c(=O)n1Cl | – | – | inactive
